Counter-ions that a name gives are not always drawn.

Chain of IRAK4 (Q9NWZ3 whole entry): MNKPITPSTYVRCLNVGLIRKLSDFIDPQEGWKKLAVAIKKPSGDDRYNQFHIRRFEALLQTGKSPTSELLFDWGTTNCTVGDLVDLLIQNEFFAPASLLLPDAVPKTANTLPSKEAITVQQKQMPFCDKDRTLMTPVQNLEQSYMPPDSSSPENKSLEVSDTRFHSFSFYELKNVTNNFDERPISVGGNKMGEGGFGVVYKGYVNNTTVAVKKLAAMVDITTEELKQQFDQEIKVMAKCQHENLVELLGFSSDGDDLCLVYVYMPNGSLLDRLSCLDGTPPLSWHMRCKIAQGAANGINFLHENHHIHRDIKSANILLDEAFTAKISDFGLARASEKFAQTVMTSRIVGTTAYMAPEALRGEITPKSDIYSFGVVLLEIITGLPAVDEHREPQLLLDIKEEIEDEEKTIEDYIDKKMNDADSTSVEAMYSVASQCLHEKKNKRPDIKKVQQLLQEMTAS

The experiment has as its target IRAK4 (Homo sapiens (Human), UniProt Q9NWZ3). Description: IRAK4 Kinase Assay. It counts as biochemical. The settings on record: IMAP fluorescence polarization, 0.5 nM GST tagged IRAK4, 100 μM ATP, 30 minutes at 25° C.; read-out: IRAK4 IC50. (In general: In fluorescence polarisation assays a small probe gives low polarisation when free and higher when bound to something large.)
Regarding `Cn1cc(NC(=O)c2cnn3ccc(N4CCNC(C(F)(F)F)C4)nc23)c(C(F)(F)F)n1` (stereo not drawn) [Example 15, N-[1-methyl-3-(trifluoromethyl)-1H-pyrazol-4-yl]-5-(3-(trifluoromethyl)piperazin-1-yl]pyrazolo[1,5-a]pyrimidine-3-carboxamide], the half-inhibitory concentration (IC50) – broadly, the concentration that gives 50% inhibition – is 0.113 µM.

With `Cn1cc(NC(=O)c2cnn3ccc(N4CCNC(C(F)F)C4)nc23)c(C(F)(F)F)n1` (stereo not drawn) [Example 16, 5-[3-(difluoromethyl)piperazin-1-yl]-N-[1-methyl-3-(trifluoromethyl)-1H-pyrazol-4-yl]pyrazolo[1,5-a]pyrimidine-3-carboxamide formate], the 50% inhibitory concentration (IC50) amounted to 0.049 µM.

For the molecule `Cn1cc(NC(=O)c2cnn3ccc(NC4CCCNCC4)nc23)c(C(F)(F)F)n1` (stereo not drawn) [Example 17, 5-(azepan-4-ylamino)-N-[1-methyl-3-(trifluoromethyl)-1H-pyrazol-4-yl]pyrazolo[1,5-a]pyrimidine-3-carboxamide hydrochloride], the IC50 came to 0.014 µM.

In the case of `Cn1cc(NC(=O)c2cnn3ccc(N4CCN5CCCC5C4)nc23)c(C(F)(F)F)n1` (stereo not drawn) [Example 18, 5-(hexahydropyrrolo[1,2-a]pyrazin-2(1H)-yl)-N-[1-methyl-3-(trifluoromethyl)-1H-pyrazol-4-yl]pyrazolo[1,5-a]pyrimidine-3-carboxamide], the concentration for half-maximal inhibition (IC50) was 0.097 µM.

Regarding `Cn1cc(NC(=O)c2cnn3ccc(N4CC5CC(C4)N5)nc23)c(C(F)(F)F)n1` [Example 19, 5-(3,6-diazabicyclo[3.1.1]hept-3-yl)-N-[1-methyl-3-(trifluoromethyl)-1H-pyrazol-4-yl]pyrazolo[1,5-a]pyrimidine-3-carboxamide trifluoroacetate], the IC50 is 0.389 µM.

On to `Cn1cc(NC(=O)c2cnn3ccc(N4C[C@@H](O)C[C@H](O)C4)nc23)c(C(F)(F)F)n1` [Example 21, 5-[(3S,5S)-3,5-dihydroxypiperidin-1-yl]-N-[1-methyl-3-(trifluoromethyl)-1H-pyrazol-4-yl]pyrazolo[1,5-a]pyrimidine-3-carboxamide], for which the IC50 turned out to be 0.02 µM.

As to `Cn1cc(NC(=O)c2cnn3ccc(N4CCC[C@H](O)C4)nc23)c(C(F)(F)F)n1` [Example 22, 5-[(3S)-3-hydroxypiperidin-1-yl]-N-[1-methyl-3-(trifluoromethyl)-1H-pyrazol-4-yl]pyrazolo[1,5-a]pyrimidine-3-carboxamide], the IC50 came out at 0.002 µM.

Consider `Cn1cc(NC(=O)c2cnn3ccc(N4CCC[C@@H](O)C4)nc23)c(C(F)(F)F)n1` [Example 23, 5-[(3R)-3-hydroxypiperidin-1-yl]-N-[1-methyl-3-(trifluoromethyl)-1H-pyrazol-4-yl]pyrazolo[1,5-a]pyrimidine-3-carboxamide], for which the IC50 was determined as 0.0009 µM.

As for `Cn1cc(NC(=O)c2cnn3ccc(N4C[C@H](O)C[C@@H](O)C4)nc23)c(C(F)F)n1` [Example 24, N-[3-(difluoromethyl)-1-methyl-1H-pyrazol-4-yl]-5-[(3R,5R)-3,5-dihydroxypiperidin-1-yl]pyrazolo[1,5-a]pyrimidine-3-carboxamide], the concentration for half-maximal inhibition (IC50) was 0.004 µM.

On to `Cn1cc(NC(=O)c2cnn3ccc(N4CCC[C@@H](O)C4)nc23)c(C(F)F)n1` [Example 25, N-[3-(difluoromethyl)-1-methyl-1H-pyrazol-4-yl]-5-[(3R)-3-hydroxypiperidin-1-yl]pyrazolo[1,5-a]pyrimidine-3-carboxamide], for which the half-inhibitory concentration (IC50) turned out to be 0.0005 µM.

In the case of `Cn1cc(NC(=O)c2cnn3ccc(N4CCC[C@H](O)C4)nc23)c(C(F)F)n1` [Example 26, N-[3-(difluoromethyl)-1-methyl-1H-pyrazol-4-yl]-5-[(3S)-3-hydroxypiperidin-1-yl]pyrazolo[1,5-a]pyrimidine-3-carboxamide], the IC50 turned out to be 0.0005 µM.

Consider `Cn1cc(NC(=O)c2cnn3ccc(N4CCNCC(F)C4)nc23)c(C(F)(F)F)n1` (stereo not drawn) [Example 27, 5-(6-fluoro-1,4-diazepan-1-yl)-N-[1-methyl-3-(trifluoromethyl)-1H-pyrazol-4-yl]pyrazolo[1,5-a]pyrimidine-3-carboxamide trifluoroacetate], for which the IC50 stood at 0.149 µM.

For the molecule `Cn1cc(NC(=O)c2cnn3ccc(N4CCNC(C5CC5)C4)nc23)c(C(F)(F)F)n1` (stereo not drawn) [Example 28, 5-(3-cyclopropylpiperazin-1-yl)-N-[1-methyl-3-(trifluoromethyl)-1H-pyrazol-4-yl]pyrazolo[1,5-a]pyrimidine-3-carboxamide trifluoroacetate], the 50% inhibitory concentration (IC50) came to 0.072 µM.

Turning to `Cn1cc(NC(=O)c2cnn3ccc(N4CCNCC4C4CC4)nc23)c(C(F)(F)F)n1` (stereo not drawn) [Example 29, 5-(2-cyclopropylpiperazin-1-yl)-N-[1-methyl-3-(trifluoromethyl)-1H-pyrazol-4-yl]pyrazolo[1,5-a]pyrimidine-3-carboxamide trifluoroacetate], the IC50 stood at 0.024 µM.

As for `Cn1cc(NC(=O)c2cnn3ccc(N4CCNC(C)(C)C4)nc23)c(C(F)(F)F)n1` [Example 30, 5-(3,3-dimethylpiperazin-1-yl)-N-[1-methyl-3-(trifluoromethyl)-1H-pyrazol-4-yl]pyrazolo[1,5-a]pyrimidine-3-carboxamide trifluoroacetate], the IC50 was 0.071 µM.

Take `N[C@H]1CCCC[C@H]1Nc1ccn2ncc(C(=O)Nc3ccncc3C(F)(F)F)c2n1` [Example 31, 5-{[(1R,2S)-2-aminocyclohexyl]amino}-N-[3-(trifluoromethyl)pyridin-4-yl]pyrazolo[1,5-a]pyrimidine-3-carboxamide formate]: the IC50 was found to be 0.004 µM.

On to `Cn1cc(NC(=O)c2cnn3ccc(N4CCC[C@@H](N)C4)nc23)c(C(F)(F)F)n1` [Example 32, 5-[(3R)-3-aminopiperidin-1-yl]-N-[1-methyl-3-(trifluoromethyl)-1H-pyrazol-4-yl]pyrazolo[1,5-a]pyrimidine-3-carboxamide], for which the half-inhibitory concentration (IC50) is 0.003 µM.

In the case of `CN1CCN(c2ccn3ncc(C(=O)Nc4cn(C)nc4C(F)(F)F)c3n2)CC1` [Example 34, 5-(4-methylpiperazin-1-yl)-N-[1-methyl-3-(trifluoromethyl)-1H-pyrazol-4-yl]pyrazolo[1,5-a]pyrimidine-3-carboxamide], the IC50 came to 0.269 µM.

With `CN1CCN(c2ccn3ncc(C(=O)Nc4cn(C)nc4C(F)(F)F)c3n2)C(C)(C)C1` [Example 35, N-[1-methyl-3-(trifluoromethyl)-1H-pyrazol-4-yl]-5-(2,2,4-trimethylpiperazin-1-yl)pyrazolo[1,5-a]pyrimidine-3-carboxamide trifluoroacetate], the 50% inhibitory concentration (IC50) worked out at 0.589 µM.

Turning to `Cn1cc(NC(=O)c2cnn3ccc(N4CCNCC(F)(F)C4)nc23)c(C(F)(F)F)n1` [Example 36, 5-(6,6-difluoro-1,4-diazepan-1-yl)-N-[1-methyl-3-(trifluoromethyl)-1H-pyrazol-4-yl]pyrazolo[1,5-a]pyrimidine-3-carboxamide trifluoroacetate], the IC50 was 0.376 µM.

In the case of `N[C@H]1CCCC[C@H]1Nc1ccn2ncc(C(=O)Nc3ccccc3C(F)(F)F)c2n1` [Example 38, 5-{[(1R,2S)-2-aminocyclohexyl]amino}-N-[2-(trifluoromethyl)phenyl] pyrazolo[1,5-a]pyrimidine-3-carboxamide trifluoroacetate], the 50% inhibitory concentration (IC50) was 0.016 µM.

Turning to `N#Cc1cscc1NC(=O)c1cnn2ccc(N[C@@H]3CCCC[C@@H]3N)nc12` [Example 39, 5-{[(1R,2S)-2-aminocyclohexyl]amino}-N-(4-cyanothiophen-3-yl)pyrazolo[1,5-a]pyrimidine-3-carboxamide trifluoroacetate], the IC50 was 0.002 µM.

As to `Cn1cc(NC(=O)c2cnn3ccc(N4CCN5CCC4CC5)nc23)c(C(F)(F)F)n1` [Example 40, 5-(1,4-diazabicyclo[3.2.2]non-4-yl)-N-[1-methyl-3-(trifluoromethyl)-1H-pyrazol-4-yl]pyrazolo[1,5-a]pyrimidine-3-carboxamide trifluoroacetate], the half-maximal inhibitory concentration (IC50) stood at 0.497 µM.

Turning to `Cn1cc(NC(=O)c2cnn3ccc(N4CCNCC4CC(F)(F)F)nc23)c(C(F)(F)F)n1` (stereo not drawn) [Example 41, N-[1-methyl-3-(trifluoromethyl)-1H-pyrazol-4-yl]-5-[2-(2,2,2-trifluoroethyl)piperazin-1-yl]pyrazolo[1,5-a]pyrimidine-3-carboxamide trifluoroacetate], the half-inhibitory concentration (IC50) amounted to 0.106 µM.

Turning to `N#Cc1sccc1NC(=O)c1cnn2ccc(N[C@@H]3CCCC[C@@H]3N)nc12` [Example 42, 5-{[(1R,2S)-2-aminocyclohexyl]amino}-N-(2-cyanothiophen-3-yl)pyrazolo[1,5-a]pyrimidine-3-carboxamide trifluoroacetate], the concentration for half-maximal inhibition (IC50) was 0.0009 µM.

With `Cn1cc(NC(=O)c2cnn3ccc(N4CCN5CCC4C5)nc23)c(C(F)(F)F)n1` (stereo not drawn) [Example 43, 5-(1,4-diazabicyclo[3.2.1]oct-4-yl)-N-[1-methyl-3-(trifluoromethyl)-1H-pyrazol-4-yl]pyrazolo[1,5-a]pyrimidine-3-carboxamide trifluoroacetate], the IC50 was 0.045 µM.

Consider `Cn1cc(NC(=O)c2cnn3ccc(N4CCC[C@H](N)C4)nc23)c(C(F)(F)F)n1` [Example 44, 5-[(3S)-3-aminopiperidin-1-yl]-N-[1-methyl-3-(trifluoromethyl)-1H-pyrazol-4-yl]pyrazolo[1,5-a]pyrimidine-3-carboxamide], for which the IC50 turned out to be 0.005 µM.

In the case of `N[C@H]1CCCC[C@H]1Nc1ccn2ncc(C(=O)Nc3ccoc3C(F)(F)F)c2n1` [Example 45, 5-{[(1R,2S)-2-aminocyclohexyl]amino}-N-[2-(trifluoromethyl)furan-3-yl]pyrazolo[1,5-a]pyrimidine-3-carboxamide trifluoroacetate], the 50% inhibitory concentration (IC50) is 0.008 µM.

As to `CC(C)(C)n1cc(NC(=O)c2cnn3ccc(N4CCNCC4)nc23)c(C(F)(F)F)n1` [Example 46, N-[1-tert-butyl-3-(trifluoromethyl)-1H-pyrazol-4-yl]-5-piperazin-1-ylpyrazolo[1,5-a]pyrimidine-3-carboxamide trifluoroacetate], the IC50 is 0.048 µM.

As for `CC(C)(C)n1cc(NC(=O)c2cnn3ccc(N4CCNCC5(CC5)C4)nc23)c(C(F)(F)F)n1` [Example 47, N-[1-tert-butyl-3-(trifluoromethyl)-1H-pyrazol-4-yl]-5-(5,8-diazaspiro[2.6]non-5-yl)pyrazolo[1,5-a]pyrimidine-3-carboxamide trifluoroacetate], the half-inhibitory concentration (IC50) came out at 0.049 µM.
